We go through 16 compounds from PubChem BioAssay (NCI).

Each structure is given as a SMILES string.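 Following 48 hours of exposure in 96-well plates, responses at five concentrations were used to interpolate endpoints linearly. TGI denotes the concentration required for complete inhibition of growth.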

Holding throughout (assay): NCI anticancer screen, dose series, 48 h
Assay [1] has as its system A549 NSCLC.
Assay [2] concerns DU-145 prostate.
For assay [3], the system named is HS 578T breast.
Assay [4] has as its system M14 melanoma.
Assay [5] deals with MCF7 breast.
Assay [6] relates to MOLT-4 leukemia.
The subject of assay [7] is NCI-H226 lung.
In assay [8] the test system is U251 CNS.

Take `C=C1CCCCCCCCCCC1S(=O)c1ccccc1` (stereo not drawn): the TGI in assay [1] is over 100 µM; in assay [2] it was over 100 µM; in assay [3], over 100 µM; in assay [4] it was 92.2 µM; in assay [5], 65.5 µM; in assay [6], 78.5 µM. For the same compound, the TGI in assay [7] is over 100 µM; in assay [8], 53.2 µM.
With `Cc1nn(-c2ccccc2)c(C)c1/C=N/NC(=O)c1sc(=S)n(-c2ccccc2)c1N`, the TGI in assay [1] was 34.8 µM; in assay [2] it was over 100 µM; in assay [3], 8.46 µM; in assay [4] it was over 100 µM; in assay [5], over 100 µM; in assay [6] it was over 100 µM. Moreover, the TGI is 79.1 µM in assay [7] and over 100 µM in assay [8].
Consider `CC[C@H]1C=CCC[C@@]2(C[C@@H]3CC[C@@H]4[C@H](C(=O)OCCCCCCCCCCCCCCCC(=O)N(CCCN)C[C@@H](O)CCN)[C@]5(CCC[C@@H](C)O5)NC(=[N+]34)N2)O1`, for which the TGI in assay [1] is 1.25 µM; in assay [2], over 10 µM; in assay [3], 2.88 µM; in assay [4], 0.0599 µM; in assay [5], 1.71 µM; in assay [6] it was 0.524 µM. For the same compound, the TGI in assay [7] came out at 3.66 µM; in assay [8], 1.68 µM.
As for `CC1CC[C@]2(C(=O)O)CCC3(C)C(=C2[C@H]1C)C=CC1[C@@]2(C)CC[C@H](O)C(C)(C)C2CC[C@]13C` (stereo partly drawn), the TGI in assay [1] was 62.6 µM; in assay [2], 42.4 µM; in assay [3], over 100 µM; in assay [4], over 100 µM; in assay [5], over 100 µM; in assay [6] it was over 100 µM. The TGI in assay [7] was over 100 µM; in assay [8] it was 97.7 µM.
For the compound `CC(NC(=O)c1ccc(OP(=O)(OCC2=CC(=O)c3ccccc3C2=O)N(C)CCCCCl)cc1)c1ccc(OCC2CCCCC2)c(C(N)=O)c1` (stereo not drawn), the TGI in assay [1] is 5.6 µM; in assay [2], 16.7 µM; in assay [3], 21.7 µM; in assay [4], 13 µM; in assay [5] it was 24.9 µM; in assay [6], 30 µM. Besides, the TGI was 24.2 µM in assay [7] and 22.3 µM in assay [8].
With `CN(C)CCOc1ccc(-c2c(Oc3ccc(Cl)cc3)c(=O)oc3ccccc23)cc1`, the TGI in assay [1] is over 32.5 µM; in assay [2], 45.5 µM; in assay [3], 24.8 µM; in assay [4], 3.12 µM; in assay [5] it was over 28.3 µM; in assay [6], over 41.8 µM. The TGI in assay [7] was over 53.9 µM; in assay [8] it was over 32.9 µM.
In the case of `CC1(C)CCOC(=O)C(Cl)CC1Cl` (stereo not drawn), the TGI in assay [1], in assay [2], in assay [3], in assay [4], in assay [5] and in assay [6] was over 100 µM in each case. The TGI in assay [7] and in assay [8] was over 100 µM in each case.
In the case of `CCN(CC)C(=O)CCCCCCCCC1CO1` (stereo not drawn), the TGI in assay [1], in assay [2], in assay [3], in assay [4], in assay [5] and in assay [6] was over 100 µM in each case. Besides, the TGI in assay [7] and in assay [8] was over 100 µM each time.
In the case of `COC(=O)c1c(O)ccc2c1c1c(n2C)C(=O)c2ccccc2C1=O`, the TGI is over 100 µM in assay [1]; 72.7 µM in assay [2]; 42.2 µM in assay [3]; over 100 µM in assay [4]; over 100 µM in assay [5]; 22.8 µM in assay [6]. The TGI is over 100 µM in assay [7] and 67.5 µM in assay [8].
Regarding `C=C[C@H]1CN2CC[C@H]1C[C@@H]2[C@@H](O)c1ccnc2ccccc12`, the TGI in assay [1] was over 100 µM; in assay [2] it was over 100 µM; in assay [3], 8.28 µM; in assay [4] it was over 100 µM; in assay [5], over 100 µM; in assay [6], over 100 µM. Moreover, the TGI in assay [7] and in assay [8] was over 100 µM each time.
Turning to `CCn1c2c(c3c(C(=O)OC)c(O)ccc31)C(=O)c1ccccc1C2=O`, the TGI was determined as 38.9 µM in assay [1]; 38.9 µM in assay [2]; 55.3 µM in assay [3]; 28.3 µM in assay [4]; 70.8 µM in assay [5]; 61.5 µM in assay [6]. For the same compound, the TGI in assay [7] was determined as 34 µM; in assay [8] it was 36.3 µM.
In the case of `Cc1nc2ccccc2n1CCc1nc2ccccc2s1`, the TGI is over 100 µM in assay [1]; over 100 µM in assay [2]; over 100 µM in assay [3]; over 100 µM in assay [4]; over 100 µM in assay [5]; 53.6 µM in assay [6]. Besides, the TGI in assay [7] was 42.9 µM; in assay [8] it was over 100 µM.
`COc1ccc(N=C/C=C/Nc2ccc(OC)cc2)cc1`: the TGI in assay [1] was 25.2 µM; in assay [2], 32.9 µM; in assay [3] it was 38.8 µM; in assay [4], 23.2 µM; in assay [5], 16.3 µM; in assay [6], 22.9 µM. In addition, the TGI in assay [7] amounted to 32.6 µM; in assay [8] it was 10.2 µM.
Turning to `NNC(=O)c1ccccc1NC(=O)/C(=C/c1ccccc1)NC(=O)c1ccccc1`, the TGI in assay [1], in assay [2], in assay [3], in assay [4], in assay [5] and in assay [6] was over 100 µM each time. In addition, the TGI in assay [7] and in assay [8] was over 100 µM throughout.
In the case of `O=C1/C(=C/c2cccs2)N=C(c2ccccc2)N1C1Nc2cc3c(cc2S1)NC(N1C(=O)/C(=C/c2cccs2)N=C1c1ccccc1)S3` (stereo not drawn), the TGI was over 100 µM in assay [1]; over 100 µM in assay [2]; 61.5 µM in assay [3]; 37.1 µM in assay [4]; over 100 µM in assay [5]; 59.6 µM in assay [6]. The TGI in assay [7] is 48.3 µM; in assay [8], 32.7 µM.
For `CC(=O)O[C@H]1/C(=C/c2ccc(N(C)C)cc2)C[C@H]2[C@@H]3CC=C4C[C@@H](N5CCCC5)CC[C@]4(C)[C@H]3CC[C@]12C`, the TGI in assay [1], in assay [2], in assay [3], in assay [4], in assay [5] and in assay [6] was over 100 µM in each case. Further, the TGI in assay [7] and in assay [8] was over 100 µM in each case.
